Results reported in patent US20220245798A1, “TISSUE STEM CELL COUNTING […] USES THEREOF” (Asymmetrex LLC, priority 2021, published 2022).

Tested on: HSCs in CD34+-selected normal human bone marrow cells
Assay: PSCK-RIFS tissue stem cell counting and cell kinetics determination, serial culture of BM-CD34+ cells with stem cell-active agents
Assay type: cell-based
Details: for Committed Progenitor Cells CC Time / Stem Cells Asym CC Time / Stem Cells SSR Rate, RS / Stem Cells Sym CC Time / Stem Cells Initial Fraction: BM-CD34+ serial culture, agent supplemented at all times; for Committed Progenitor Cells CC Time / Stem Cells Asym CC Time / Stem Cells SSR Rate, RS / Stem Cells Sym CC Time: mean of n=5; for Stem Cells Initial Fraction: mean of n=5 PSCK-RIFS determinations
From the text: Strain WI-38 pre-senescent human lung cells were purchased from the American Type Culture Collection (Manassas, Va., USA; ATCC #CCL-75; passage 15). Expanded human liver stem cell strain SACK-XS 12(3) was purchased from Kerafast (Boston, Mass., USA; #EJS002). CD34+-selected normal human bone marrow cells were purchased from the ATCC (#PCS-800-012). CD34+-selected human umbilical cord blood cells were purchased from STEMCELL Technologies, Inc. (Cat#70008; Cambridge, Mass.).
Expanded human liver stem cell strain SACK-XS 12(3) cells were cultured in the supplier's recommended culture medium without inclusion of xanthosine. CD34+-selected normal human bone marrow cells were cultured in StemSpan™ SFEM II medium (STEMCELL Technologies, Inc., Cambridge, Mass., USA; #09655) supplemented with StemSpan™ CD34+ Expansion Supplement (STEMCELL Technologies, Inc., #02691). SACK-XS 12(3) serial cultures were initiated in 6-well plates with 325,000 viable cells. CD34+ cell serial cultures were initiated as 24-well suspension cultures with 65,000 viable cells. For both cell types, ⅓ of total cells were transferred to a new culture well every 96±4 hour interval. Tested agents were supplemented at all times during the culture period.
Based on the determined stem cell symmetric self-renewal frequency (RS), in the early studies presented herein a correction was applied to account for this effect. The correction is determined by the following Equation 1:
NSo corrected=NS1st interval/(RSe^kt+RA−RDS) (Equation 1)
In Equation 1, NS1st interval=NS peak value determined from the initial interval of PSCK; t=the time to the first interval NS peak in the respective simulation; k=ln 2/GTS, the mean generation time for symmetrically self-renewing stem cells; RS, RA, and RDS are mean cell kinetics factors determined by the originating PSCK-RIFS analysis (See EXAMPLE 4). The mean of 10 independent PSCK NS simulations was used for correction. Equation 1 was applied to determine the initial stem cell fraction whenever a significant RS value was found.
The simulation confidence level was estimated from the root mean squared error of the comparison of simulated cumulative population doubling (CPD) data to experimental CPD data. Student's t-test (2-tailed) was used to calculate p-values for confidence for cell kinetics factors determined by the PSCK-RIFS software (See also EXAMPLE 4) with respect to 0.0 and their 95% confidence intervals. Student's t-test (2-tailed) was also used to calculate p-values for confidence for differences in the value of cell kinetics factors derived under different culture conditions.
FIGS. 1 and 11 outline the application of the PSCK-RIFS software. A tissue cell preparation of interest is first counted (including viable cell determination; NC in Table 5) and used to initiate serial cultures, typically in triplicate.
At an experimenter defined interval (SPLI in Table 5), cultures are counted—including viable cell count—and a constant fraction of the cells or number of the cells is transferred to a new culture dish of the same type (FIG. 11). The PSCK software is designed to be versatile for accommodating different formats for the culture time period and/or the number of cells transferred. The total cell count data are transformed into plots of cumulative population doublings (CPD); and the viable cell fraction is used to estimate the dead cell fractions for transient cells (RDT in Table 5) and terminal cells (RDTM in Table 5), which are similarly very abundant during most of the culture period.
FIG. 1 depicts the various inputs that are used by the PSCK software to calculate CPD curve simulations for the period defined by the experimental CPD data. Using the cellular model illustrated in FIG. 1, the software inputs measured values (“m” superscripted in FIG. 1) and discovered factors (“d” superscripted in FIG. 1) obtained from the RIFS software. An important aspect of the PSCK-RIFS method is that there is no underlying mathematical algorithm. […]

Compound	change in stem cell fraction of supplemented cultures (BM-CD34+ cultures)	Committed Progenitor Cells CC Time	Stem Cells Asym CC Time	Stem Cells SSR Rate, RS	Stem Cells Sym CC Time	Stem Cells Initial Fraction	increase in HSC number (after only 4 days of culture) [fold]	RS, rate of symmetric self-renewal, of HSC divisions (increase from undetectable, p=0.037) [%]	change in determined HSC number (within the first four days of culture)
O=c1[nH]c(=O)c2ncn([C@@H]3O[C@H](CO)[C@@H](O)[C@H]3O)c2[nH]1 [Xanthosine, xanthosine]	increases	8.2 h (NS)	6.6 h (NS)	3.2 × 10^−3 (0.037)	9.4 h (NS)	3.5 × 10^−3 (0.001)	10	0.32	–
O=NN(CCCl)C(=O)NCCCl [BCNU, bis-chloroethylnitrosourea]	–	6.4 h (NS)	7.6 (NS) h	0.0 (NS)	8.2 h (NS)	1.3 × 10^−4 (0.001)	–	–	decrease
